Read-outs that look alike come from different tables or passages of the source.
Key:
[1] = tested on: SUM159; assay: cells; conditions: SUM159, 72 h
[2] = tested on: NGP; assay: Cell viability, ATPlite 72 hours; type: cell-based; conditions: NGP; for IC50: read-out: IC50 (nM) NGP
[3] = tested on: HCT116; assay: cells; conditions: Homo sapiens, HCT-116, 72 h

SMILES: Cc1sc2c(c1C)C(c1ccc(Cl)cc1)=N[C@@H](CC(=O)NCCCCCCCCNC(=O)COc1cccc3c1C(=O)N(C1CCC(=O)NC1=O)C3=O)c1nnc(C)n1-2 (stereo partly shown) [dBET6]
- Emax ([1]; read-out: Emax (%) SUM159): 12%
- IC50 ([1]; read-out: IC50 (nM) SUM159): 32.5 nM
- Emax ([2]; 72 h, read-out: Emax (%) NGP): 21.9%
- IC50 ([2]; 72 h): 188 nM
- IC50 [2]: 188 nM
- Emax ([3]; read-out: Emax (%) HCT116): 26.9%
- IC50 ([3]; read-out: IC50 (nM) HCT116): 154 nM

Reference: US10464925B2, “Methods to induce targeted protein degradation through bifunctional molecules” (Dana-Farber Cancer Institute, Inc., priority 2015, dated 2019)
